# Test results as given in BindingDB's records for doi:10.1006/abio.2001.5466 (Kosan Biosciences, 2002).
# Values joined by “and” are separate entries in the source; they are usually repeats but may differ in a detail not shown here. Equal entries are not always repeated.
# Target: T1, Promotilin (Homo sapiens, UniProt P12872)
# T1 sequence (P12872 whole entry): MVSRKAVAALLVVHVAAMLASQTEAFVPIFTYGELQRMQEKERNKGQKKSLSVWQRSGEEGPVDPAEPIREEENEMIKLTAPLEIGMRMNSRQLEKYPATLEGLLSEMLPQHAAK
row,Compound,Ki
1,"CC[C@H]1OC(=O)[C@H](C)[C@@H](O[C@H]2C[C@@](C)(OC)[C@@H](O)[C@H](C)O2)[C@H](C)[C@@H](O[C@H]2O[C@@H](C)C[C@@H](N(C)C)[C@@H]2O)[C@](C)(O)C[C@@H](C)C(=O)[C@H](C)[C@@H](O)[C@]1(C)O [(3R,4S,5S,6R,7R,9R,11R,12R,13S,14R)-6-{[(2R,3S,4R,6S)-4-(dimethylamino)-3-hydroxy-6-methyloxan-2-yl]oxy}-14-ethyl-7,12,13-trihydroxy-4-{[(2R,4R,5S,6S)-5-hydroxy-4-methoxy-4,6-dimethyloxan-2-yl]oxy}-3,5,7,9,11,13-hexamethyl-1-oxacyclotetradecane-2,10-dione]",1290 nM
2,CC[C@H](C)[C@H](NC(=O)[C@@H]1CCCN1C(=O)[C@@H](NC(=O)[C@@H](N)Cc1ccccc1)C(C)C)C(=O)N[C@@H](Cc1ccccc1)C(=O)N[C@H](C(=O)N[C@@H](Cc1ccc(O)cc1)C(=O)NCC(=O)N[C@@H](CCC(=O)O)C(=O)N[C@@H](CC(C)C)C(=O)N[C@@H](CCC(N)=O)C(=O)N[C@@H](CCCNC(=N)N)C(=O)N[C@@H](CCSC)C(=O)N[C@@H](CCC(N)=O)C(=O)N[C@@H](CCC(=O)O)C(=O)N[C@@H](CCCCN)C(=O)N[C@@H](CCC(=O)O)C(=O)N[C@@H](CCCNC(=N)N)C(=O)N[C@@H](CC(N)=O)C(=O)N[C@@H](CCCCN)C(=O)NCC(=O)N[C@@H](CCC(N)=O)C(=O)O)[C@@H](C)O [CAS_52906-92-0],5.25 nM
3,CC[C@H]1OC(=O)[C@H](C)[C@@H](O[C@H]2C[C@@](C)(OC)[C@@H](O)[C@H](C)O2)[C@H](C)[C@@H](O[C@@H]2O[C@H](C)C[C@H](N(C)C)[C@H]2O)[C@@]2(C)CC(C)=C(O2)[C@H](C)[C@@H](O)[C@]1(C)O [Erythromycin-A enol ether],19.1 nM and 47.9 nM
